In PMC4311240, “Rationally Designed Peptidomimetic Modulators of Aβ Toxicity in Alzheimer's Disease” (Scientific Reports, 2015):
Where two headings read alike, the source gives them in different places. Non-standard residues stand in square brackets, D forms with d. Residues, ends and D or L forms follow the SMILES beside them. *: point of attachment. Acetyl(thymin-1-yl) = Cc1cn(CC(=O)*)c(=O)[nH]c1=O; Sar = CNCC(=O)O

What was measured:
Aβ42 = molecular target: T1, Aβ42 (Homo sapiens, UniProt P05067); assay: CD measurement, inhibition assay (β-sheet band at 218 nm); type: biochemical; conditions: read-out: reduction in CD intensity at 218 nm (β-sheet content), inhibition assay
T1 construct: Aβ42 peptide (0.25 mg) (Calbiochem, Merck) was dissolved in hexafluoro-2-propanol; purchased Calbiochem, Merck
T1 sequence (P05067 672-713 limits assumed): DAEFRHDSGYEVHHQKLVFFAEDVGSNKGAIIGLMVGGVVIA
From the text: To further validate our results, we performed CD studies. Aβ42 aggregates are predominantly made of β-sheet assembly, which can be assessed by CD measurements. […] In this assay, we monitored the intensity of negative CD band centered at 218 nm, characteristic of a β-sheet structure and a decrease in its intensity was correlated with a reduction in the toxic Aβ42 aggregates (supplementary Fig. S2). In these CD measurements, samples similar to ThT fluorescence assays were used to allow for direct comparison between the two experiments. In the case of inhibition assay, Aβ42 monomers were incubated with inhibitor candidates for 4 days at 37°C and then CD measurements were performed to evaluate the inhibition efficiency. […] In the reversal assay, Aβ42 aggregates were incubated with the inhibitor candidates for six days at 37°C and then, CD measurements were performed. CD data was in excellent agreement with the dissolution efficiency obtained in reversal assay experiments monitored by the ThT assay (Fig. 2). […] Overall, inhibition and dissolution efficiencies obtained in the ThT fluorescence assay and CD measurements were in good agreement.
The circular dichroic (CD) spectra were recorded using a Jasco J-815 spectrometer under nitrogen atmosphere. Peptides were dissolved in 10 mM PBS buffer at pH 7.4 at concentrations of 20 µM. A 10 mm path length was used for the measurements. Four to five scans were acquired from 200 to 300 nm.
(§1) Prior to the experiment, P1, P2, P3, P4 and P5 were dissolved in HFIP and were evaporated under a stream of dry nitrogen. The dried samples were re-suspended in 10 mM PBS buffer at pH 7.4. An aliquot of Aβ42 peptide was then added to the solution with or without one of the inhibitor P1, P2, P3, P4 and P5. The mixtures were vortexed for approximately 30 s and then incubated at 37°C for 2–3 days without shaking. The final concentration of Aβ42 in the mixture was 20 μΜ. For a dissolution experiment, Aβ42 was incubated alone for 2 days to allow fibrils to form. An aliquot of the formed fibrils in 10 mM PBS buffer was then added to the inhibitor peptidomimetics. The amount of fibrils remaining intact was assayed using that fluorescence, CD measurements and transmission electron microscopy as described below.

pepsin = assay: Protease stability assay, pepsin; type: in vitro ADME; conditions: 100 mM formic acid buffer pH 2, 50 μM, 37°C; for stability towards pepsin: 24 h, RP-HPLC; for remaining at 24 h, 50 μM: RP-HPLC at 254 nm, triplicates, read-out: peptidomimetic intact after 24 h with pepsin
Procedure: (§2) Enzymes trypsin and pepsin are well-known to cleave the C-terminal of lysine and amide bond involving aromatic amino acids, respectively. Peptides were incubated with both the enzymes at 37°C for 24 h, and the amount of the residual intact peptide was monitored in each case at different time points (0, 3, 6, 12 and 24 h) using RP-HPLC. […] Overall, the stability assays with blood plasma and proteolytic enzymes led to similar conclusions and confirmed the stability, order P5>P4≫P3≈P2>P1.
(§3) Preliminary stability assays were performed using the enzymes pepsin and trypsin. For all assays, peptides were incubated with the enzyme at 37°C for 24 h. All digestion assay data were analyzed by RP-HPLC. Trypsin and pepsin stocks were prepared in 100 mM ammonium bicarbonate (NH4HCO3) buffer (pH 8) and 100 mM formic acid buffer (pH 2), respectively. All the peptides/peptidomimetics (P1, P2, P3, P4 and P5) were incubated with trypsin and pepsin enzymes in 100 mM NH4HCO3 buffer (pH 8) and formic acid buffer (pH 2), respectively, at 37°C. The trypsin reactions were halted with 0.05% formic acid, and the pepsin reactions were halted with 100 mM NH4HCO3. Then the samples were analyzed by RP-HPLC using a linear gradient of solvent B (0.3 mL/min flow rate); similar data points were collected at various time points between 0 and 24 h (1 h, 3 h, 6 h, 12 h and 24 h) during incubation and analyzed in triplicates. The percentages of recovered peptide/peptidomimetics were detected by integration at 254 nm[46].
(§4) Figure S6. Stability towards protease enzymes pepsin and trypsin. P1, P2, P3, P4 and P5 ([…]) were incubated in with enzymes pepsin a and trypsin b in 100 mM formic acid buffer (pH 2) and 100 mM NH4HCO3 buffer (pH 8) respectively. Percentage of intact peptide in each case was monitored at different time points for a duration of 24 h. P1, P2 and P3 degraded with time, […]
(§5) (1 picture or pasted object on this page, not shown here)

trypsin = assay: Protease stability assay, trypsin; type: in vitro ADME; conditions: 100 mM NH4HCO3 buffer pH 8, 50 μM, 37°C; for stability towards trypsin: 24 h, RP-HPLC; for remaining at 24 h, 50 μM: RP-HPLC at 254 nm, triplicates, read-out: peptidomimetic intact after 24 h with trypsin
Procedure: as §2, §3, §4, §5

[1] = molecular target: T2, Aβ42 fibrillar aggregates (Homo sapiens, UniProt P05067); assay: ThT fluorescence reversal (dissolution) assay of preformed Aβ42 fibrillar aggregates; type: biochemical; conditions: n = 3; for dissolution efficiency, fibril reversal assay (ThT): Aβ42 fibrillar aggregates grown for 2 days, 20 μM, 1:2 stoichiometry, day 6, 37°C; for dissolution efficiency, time-dependent reversal ThT assay: Aβ42 aggregates 20 μM, 1:2, 37°C
T2 construct: Aβ42 peptide (0.25 mg) (Calbiochem, Merck) was dissolved in hexafluoro-2-propanol; purchased Calbiochem, Merck
T2 sequence (P05067 672-713 limits assumed): as above
Procedure: ThT assay has been widely used to monitor the transformation of Aβ42 monomers to fibrillar aggregates. We employed ThT assay to evaluate the ability of our peptidomimetic candidates to either prevent fibril assembly (inhibition) or to break down preformed fibrils of Aβ42 (dissolution). For the inhibition assay all the peptidomimetics (P2, P3, P4 and P5) along with control peptide P1 were added at 0 h of the experiment, whereas for the aggregates reversal (dissolution) assay they were added to Aβ42 fibrillar aggregates grown for 2 days. Once they had been incubated together, Aβ42/inhibitors were analyzed using ThT by measuring the fluorescence changes. First, we performed concentration-dependent experiments where different ratios of P1, P2, P3, P4 and P5 were incubated with fixed concentrations of Aβ42 (20 μM) and its aggregates to study their effect on both inhibition and reversal assay, respectively. Experiments were performed at stoichiometric ratios (Aβ42/inhibitor) of 1:0.2, 1:1, and 1:2 with the fixed concentration of Aβ42 of 20 μM. […] However, the efficiencies of P4 and P5 were only marginally better in inhibition assay compared to reversal assay with a difference of about 15%.
Aβ42 peptide (0.25 mg) (Calbiochem, Merck) was dissolved in hexafluoro-2-propanol (HFIP, 0.2 mL) and incubated at room temperature for 1 h. HFIP was then removed by the flow of nitrogen and further dried under vacuum. HFIP-treated Aβ42 was then dissolved in 10 mM PBS buffer to a concentration of 200 μM at pH 7.4. The solution was incubated at 37°C for 48 h with constant shaking for fibril formation. The formation of Aβ42 fibrillar aggregates was confirmed by ThT fluorescence, CD measurements and electron microscopy. For oligomers, HFIP-treated Aβ42 dissolved in 10 mM PBS buffer and incubated at 4°C for 24 h[44].
Fluorescence spectral measurements were carried out using Perkin Elmer Model LS 55 fluorescence spectrophotometer. […] A ThT concentration of 5–10 µM was used for amyloid fibrillization and dissolution assay based on the Aβ42 fibrillar concentration.
as §1

[2] = Aβ42 20 μM, inhibitor 40 μM, 4 days at 37°C, vs untreated Aβ42

Row | Structure (SMILES) | inhibition at 40 µM (Aβ42; [2]) [%] | stability towards pepsin (pepsin) | stability towards trypsin (trypsin) | dissolution efficiency, fibril reversal assay (ThT) [1] [%] | dissolution efficiency, time-dependent reversal ThT assay [1] [%] | inhibition at 40 µM (Aβ42) [%] | remaining at 24 h, 50 μM (pepsin) [%] | remaining at 24 h, 50 μM (trypsin) [%]
1 | Cc1cn(CC(=O)N[C@@H](CCCCN)C(=O)N[C@@H](CC(C)C)C(=O)N[C@H](C(=O)N[C@@H](Cc2ccccc2)C(=O)N[C@@H](Cc2ccccc2)C(N)=O)C(C)C)c(=O)[nH]c1=O [P2] | > 50 | less stable | less stable | 45 | 35 | – | – | –
2 | CC(C)C[C@H](NC(=O)[C@H](CCCCN)NC(=O)CC1C(=O)NC(=O)NC1=O)C(=O)N[C@H](C(=O)N[C@@H](Cc1ccccc1)C(=O)N[C@@H](Cc1ccccc1)C(N)=O)C(C)C [P3] | – | less stable | less stable | 34 | 25 | ~30 | – | –
3 | Cc1cn(CC(=O)N(C)CC(=O)N[C@@H](CC(C)C)C(=O)N(C)CC(=O)N[C@@H](Cc2ccccc2)C(=O)N(C)CC(=O)N[C@@H](C)C(N)=O)c(=O)[nH]c1=O [P4] ({Acetyl(thymin-1-yl)}-[Sar]L[Sar]F[Sar]A-NH2) | > 80 | – | – | 80 | 68 | – | > 90 | > 90
4 | Cc1cn(CC(=O)N[C@@H](CCCCN)C(=O)N(C)CC(=O)N[C@H](C(=O)N(C)CC(=O)N[C@@H](Cc2ccccc2)C(=O)N(C)CC(N)=O)C(C)C)c(=O)[nH]c1=O [P5] ({Acetyl(thymin-1-yl)}-K[Sar]V[Sar]F[Sar]-NH2) | > 80 | – | – | 80 | 75 | – | > 90 | > 90
